Experimental data from ChEMBL document CHEMBL1201862, “PubChem BioAssay data set” (2004).
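All cell lines were grown in 96-well plates and treated with compound for 48 hours. The concentration for 50% growth inhibition is given as GI50.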 The source made the active and inactive calls. Rule as the data show it: active = GI50 up to about 1.1 µM and inactive = higher.

Assays:
Assay in all cases: growth of human tumour cells (NCI), 48 h
[1] = system: SNB-19
[2] = system: OVCAR-4
[3] = system: SK-MEL-28
[4] = system: HCT-116
[5] = system: SK-MEL-5
[6] = system: NCI-H226
[7] = system: SF-268
[8] = system: EKVX
[9] = system: NCI/ADR-RES
[10] = system: MOLT-4
[11] = system: 786-0
[12] = system: UACC-62
[13] = system: SNB-75
[14] = system: DU-145
[15] = system: SK-MEL-2
[16] = system: T47D
[17] = system: KM12
[18] = system: CAKI-1
[19] = system: HOP-92

| Structure (SMILES) | GI50 [1] | GI50 [2] | GI50 [3] | GI50 [4] | GI50 [5] | GI50 [6] | GI50 [7] | GI50 [8] | GI50 [9] | GI50 [10] | GI50 [11] | GI50 [12] | GI50 [13] | GI50 [14] | GI50 [15] | GI50 [16] | GI50 [17] | GI50 [18] | GI50 [19] |
| --- | --- | --- | --- | --- | --- | --- | --- | --- | --- | --- | --- | --- | --- | --- | --- | --- | --- | --- | --- |
| CC(C)(C)[Si](C)(C)OCCC1CC2(S(=O)(=O)C3=CC=C=C=C3)ON1CC2S(=O)(=O)c1ccccc1 (stereo not drawn) | > 10 µM (inactive) | > 10 µM (inactive) | > 10 µM (inactive) | > 10 µM (inactive) | > 10 µM (inactive) | > 10 µM (inactive) | > 10 µM (inactive) | > 10 µM (inactive) | > 10 µM (inactive) | > 10 µM (inactive) | > 10 µM (inactive) | > 10 µM (inactive) | > 10 µM (inactive) | > 10 µM (inactive) | > 10 µM (inactive) | > 10 µM (inactive) | > 10 µM (inactive) | – | – |
| c1csc(-c2csc(-c3cccs3)c2)c1 | 32.4 µM (inactive) | 77.4 µM (inactive) | > 100 µM (inactive) | 21.9 µM (inactive) | 18.7 µM (inactive) | – | 84.5 µM (inactive) | 39.8 µM (inactive) | > 100 µM (inactive) | 28.6 µM (inactive) | 52.1 µM (inactive) | 20.8 µM (inactive) | 50.5 µM (inactive) | > 100 µM (inactive) | 20.2 µM (inactive) | 3.2 µM (inactive) | 28.9 µM (inactive) | 84.3 µM (inactive) | 17.7 µM (inactive) |
| O=C(O)c1ccccc1CC1Cc2cc3c(cc2C1)CCC3 | > 100 µM (inactive) | 80.5 µM (inactive) | > 100 µM (inactive) | > 100 µM (inactive) | > 100 µM (inactive) | > 100 µM (inactive) | > 100 µM (inactive) | > 100 µM (inactive) | > 100 µM (inactive) | > 100 µM (inactive) | > 100 µM (inactive) | 92.3 µM (inactive) | > 100 µM (inactive) | > 100 µM (inactive) | > 100 µM (inactive) | 33 µM (inactive) | > 100 µM (inactive) | – | – |
| O=C(O)c1c(-c2ccccc2)c(=O)[nH]c2ccccc12 | > 100 µM (inactive) | > 100 µM (inactive) | > 100 µM (inactive) | > 100 µM (inactive) | > 100 µM (inactive) | > 100 µM (inactive) | > 100 µM (inactive) | > 100 µM (inactive) | > 100 µM (inactive) | > 100 µM (inactive) | > 100 µM (inactive) | > 100 µM (inactive) | > 100 µM (inactive) | > 100 µM (inactive) | > 100 µM (inactive) | > 100 µM (inactive) | > 100 µM (inactive) | – | – |
| COc1ccccc1C(=O)NO | > 100 µM (inactive) | > 100 µM (inactive) | > 100 µM (inactive) | > 100 µM (inactive) | > 100 µM (inactive) | > 100 µM (inactive) | > 100 µM (inactive) | > 100 µM (inactive) | > 100 µM (inactive) | > 100 µM (inactive) | > 100 µM (inactive) | > 100 µM (inactive) | > 100 µM (inactive) | > 100 µM (inactive) | > 100 µM (inactive) | > 100 µM (inactive) | 39.5 µM (inactive) | > 100 µM (inactive) | – |
| C=C1C(=O)OC2CCN3CC=C(COC(=O)C(C)(O)C4(CO4)C1C)C23 (stereo not drawn) | > 100 µM (inactive) | > 100 µM (inactive) | > 100 µM (inactive) | > 100 µM (inactive) | > 100 µM (inactive) | > 100 µM (inactive) | > 100 µM (inactive) | > 100 µM (inactive) | > 100 µM (inactive) | > 100 µM (inactive) | > 100 µM (inactive) | > 100 µM (inactive) | – | > 100 µM (inactive) | > 100 µM (inactive) | > 100 µM (inactive) | > 100 µM (inactive) | > 100 µM (inactive) | > 100 µM (inactive) |
| CC(=O)Oc1cc(S(=O)(=O)Nc2nc(N)n[nH]2)c(S)cc1Cl | > 100 µM (inactive) | > 100 µM (inactive) | > 100 µM (inactive) | > 100 µM (inactive) | > 100 µM (inactive) | – | – | > 100 µM (inactive) | > 100 µM (inactive) | > 100 µM (inactive) | > 100 µM (inactive) | > 100 µM (inactive) | – | > 100 µM (inactive) | > 100 µM (inactive) | > 100 µM (inactive) | > 100 µM (inactive) | > 100 µM (inactive) | > 100 µM (inactive) |
| CCOC(=O)N(c1ccccc1)c1cc(=O)n2ccccc2n1 | > 100 µM (inactive) | > 100 µM (inactive) | > 100 µM (inactive) | > 100 µM (inactive) | > 100 µM (inactive) | > 100 µM (inactive) | > 100 µM (inactive) | > 100 µM (inactive) | > 100 µM (inactive) | > 100 µM (inactive) | > 100 µM (inactive) | > 100 µM (inactive) | > 100 µM (inactive) | > 100 µM (inactive) | – | > 100 µM (inactive) | > 100 µM (inactive) | > 100 µM (inactive) | – |
| Cc1ccc2c(=O)c(-c3n[nH]c(=S)s3)c[nH]c2n1 | > 100 µM (inactive) | > 100 µM (inactive) | > 100 µM (inactive) | > 100 µM (inactive) | > 100 µM (inactive) | > 100 µM (inactive) | > 100 µM (inactive) | > 100 µM (inactive) | > 100 µM (inactive) | > 100 µM (inactive) | > 100 µM (inactive) | > 100 µM (inactive) | – | > 100 µM (inactive) | > 100 µM (inactive) | > 100 µM (inactive) | > 100 µM (inactive) | > 100 µM (inactive) | – |
| C1CSCCSCCCSC2CCCCC2SC1 (stereo not drawn) | > 100 µM (inactive) | > 100 µM (inactive) | > 100 µM (inactive) | > 100 µM (inactive) | 43.2 µM (inactive) | – | > 100 µM (inactive) | > 100 µM (inactive) | 83.9 µM (inactive) | 26 µM (inactive) | > 100 µM (inactive) | > 100 µM (inactive) | > 100 µM (inactive) | > 100 µM (inactive) | – | > 100 µM (inactive) | > 100 µM (inactive) | – | 34.4 µM (inactive) |
| CN(/N=C/C=N/N(C)C1=NCCN1)C1=NCCN1 | > 100 µM (inactive) | > 100 µM (inactive) | > 100 µM (inactive) | > 100 µM (inactive) | > 100 µM (inactive) | > 100 µM (inactive) | > 100 µM (inactive) | > 100 µM (inactive) | > 100 µM (inactive) | > 100 µM (inactive) | > 100 µM (inactive) | > 100 µM (inactive) | > 100 µM (inactive) | > 100 µM (inactive) | – | > 100 µM (inactive) | > 100 µM (inactive) | > 100 µM (inactive) | > 100 µM (inactive) |
| CC1=NN(c2nc(N)nc(/C(C#N)=C\c3csc([N+](=O)[O-])c3)n2)C(C)(C)C1 | – | 21.9 µM (inactive) | 59 µM (inactive) | 47.4 µM (inactive) | 30.5 µM (inactive) | 25.8 µM (inactive) | 21.8 µM (inactive) | 30.2 µM (inactive) | 27 µM (inactive) | > 100 µM (inactive) | 17.6 µM (inactive) | – | – | 33.4 µM (inactive) | 28.9 µM (inactive) | 23.7 µM (inactive) | 57.9 µM (inactive) | 44.5 µM (inactive) | 54.7 µM (inactive) |
| Cn1c(=O)oc2cc(C(O)CN3CCN(Cc4ccccn4)CC3)c(Cl)cc21 (stereo not drawn) | > 100 µM (inactive) | > 100 µM (inactive) | > 100 µM (inactive) | > 100 µM (inactive) | – | > 100 µM (inactive) | > 100 µM (inactive) | > 100 µM (inactive) | 0.461 µM (active) | > 100 µM (inactive) | > 100 µM (inactive) | > 100 µM (inactive) | 77.3 µM (inactive) | > 100 µM (inactive) | – | > 100 µM (inactive) | > 100 µM (inactive) | > 100 µM (inactive) | > 100 µM (inactive) |
| COC(=O)C1=C(O)C(C(=O)OC)[C@]2(O)[C@H](C(=O)OC)[C@H]1C[C@@H](c1ccc([N+](=O)[O-])cc1)[C@H]2C(=O)OC (stereo partly drawn) | 19 µM (inactive) | 34.8 µM (inactive) | 16.2 µM (inactive) | 14.7 µM (inactive) | 15.3 µM (inactive) | 24.9 µM (inactive) | 16.9 µM (inactive) | 21.5 µM (inactive) | 16.4 µM (inactive) | 8.09 µM (inactive) | 14.9 µM (inactive) | 12.4 µM (inactive) | 42.3 µM (inactive) | 34.7 µM (inactive) | 18.4 µM (inactive) | 38.2 µM (inactive) | 28 µM (inactive) | 28.6 µM (inactive) | – |
| Clc1ccc(COC(Cn2ccnc2)c2ccc(Cl)cc2Cl)c(Cl)c1 (stereo not drawn) [MICONAZOLE NITRATE] | 15.9 µM (inactive) | 11.9 µM (inactive) | 12.7 µM (inactive) | 5.3 µM (inactive) | – | – | 10.3 µM (inactive) | 10.5 µM (inactive) | 4 µM (inactive) | 3.36 µM (inactive) | 10.9 µM (inactive) | 10.2 µM (inactive) | – | 13 µM (inactive) | 13.1 µM (inactive) | 4.57 µM (inactive) | 13.3 µM (inactive) | 10.5 µM (inactive) | – |
| C=CCCCCCCCCCOC1C=CC(OC(C)=O)C(COC(C)=O)O1 (stereo not drawn) | > 100 µM (inactive) | 45.8 µM (inactive) | > 100 µM (inactive) | 53.2 µM (inactive) | 31.6 µM (inactive) | > 100 µM (inactive) | 37.3 µM (inactive) | 47.6 µM (inactive) | 41.4 µM (inactive) | 24.5 µM (inactive) | 67.8 µM (inactive) | 46.8 µM (inactive) | – | > 100 µM (inactive) | 38.3 µM (inactive) | 77.3 µM (inactive) | 26.9 µM (inactive) | 80.5 µM (inactive) | 58.2 µM (inactive) |
